Patent publication US7078522B2, “Pyridopyrimidine or naphthyridine derivative” (Tanabe Seiyaku Co., Ltd., priority 2001, dated 2006)

| melting point [°C] | SMILES |
| --- | --- |
| 191 to 191.5 | CNC(=O)c1cc2cnc(N3CCC[C@H]3CO)nc2n(Cc2ccc(OC)c(Cl)c2)c1=O |
| 216 to 218 | COc1ccc(Cn2c(=O)c(C(=O)NCc3ncccn3)cc3cnc(N4CCC[C@H]4CO)nc32)cc1Cl |
| 207 to 210 | COc1ccc(Cn2c(=O)c(C(=O)NCCO)cc3cnc(N4CCC[C@H]4CO)nc32)cc1Cl |
| 142 to 143 | COc1ccc(Cn2c(=O)ccc3cnc(N4CCC[C@H]4CO)nc32)cc1Cl [Example 1, (S)-2-(2-Hydroxymethyl-1-pyrrolidinyl)-8-(3-chloro-4-methoxybenzyl)-7,8-dihydro-7-oxo-pyrido[2,3-d]pyrimidine] |
| 130 to 131 | COc1ccc(Cn2c(=O)ccc3cnc(OCc4ccccn4)nc32)cc1Cl [Example 2, 2-(2-Pyridylmethoxy)-8-(3-chloro-4-methoxybenzyl)-7,8-dihyro-7-oxo-pyrido[2,3-d]pyrimidine] |
| 143 to 144 | Cn1c(=O)ccc2cnc(N3CCC[C@H]3CO)nc21 [Example 3, (S)-2-(2-Hydroxymethyl-1-pyrrolidinyl)-8-N-mehyl-7,8-dihydro-7-oxo-pyrido[2,3-d]pyrimidine] |
| 131 to 134 | COc1ccc(Cn2c(=O)ccc3ccc(N4CCC[C@H]4CO)nc32)cc1Cl [Example 10, (S)-2-(2-Hydroxymethyl-1-pyrrolidinyl)-8-(3-chloro-4-methoxybenzyl)-7,8-dihydro-7-oxo-1,8-naphthyridine] |
| 183.5 to 186.5 | COc1ccc(Cn2c(=O)cc(-c3ccccn3)c3cnc(N4CCC[C@H]4CO)nc32)cc1Cl [Example 12, (S)-2-(2-Hydroxymethyl-1-pyrrolidinyl)-5-(2-pyridyl)-8-(3-chloro-4-methoxybenzyl)-7,8-dihydro-7-oxo-pyrido[2,3-d]pyrimidine] |
| 142 to 145 | COC(=O)c1c(-c2nccn2C)c2cnc(N3CCC[C@H]3CO)nc2n(Cc2ccc(OC)c(Cl)c2)c1=O [Example 13, (S)-2-(2-Hydroxymethyl-1-pyrrolidinyl)-5-(1-methyl-2-imidazolyl)-6-methoxycarbonyl-8-(3-chloro-4-methoxybenzyl)-7,8-dihydro-7-oxo-pyrido[2,3-d]pyrimidine] |
| 99 to 103 | O=c1ccc2cnc(N3CCC[C@H]3CO)nc2[nH]1 [Example 15] |
| 135 to 136 | COc1ccc(Cn2c(=O)ccc3cnc(N4CCC[C@H]4CO)nc32)cc1 [Example 16] |
| 132 | COc1ccc(Cn2c(=O)ccc3cnc(N4CCC[C@H]4CO)nc32)cc1OC [Example 17] |
| 154 to 155 | O=c1ccc2cnc(N3CCC[C@H]3CO)nc2n1Cc1ccc2c(c1)OCO2 [Example 18] |
| 150 to 151 | O=c1ccc2cnc(N3CCC[C@H]3CO)nc2n1Cc1ncccn1 [Example 19] |
| 143 to 144 | O=c1ccc2cnc(N3CCC[C@H]3CO)nc2n1Cc1ccncc1 [Example 20] |
| 102 to 104 | CN(C)CCn1c(=O)ccc2cnc(N3CCC[C@H]3CO)nc21 [Example 21] |
| 201 to 203 | COC(=O)c1cc2cnc(N3CCCCC3)nc2n(Cc2ccc(OC)c(Cl)c2)c1=O [Example 22] |
| 167 to 168 | COc1ccc(Cn2c(=O)ccc3cnc(N4CCc5ccccc5C4)nc32)cc1Cl [Example 23] |
| 189 to 190 | COc1ccc(Cn2c(=O)ccc3cnc(SC)nc32)cc1Cl [Example 24] |
| 172 to 173 | COc1ccc(Cn2c(=O)ccc3cnc(NCc4ncccn4)nc32)cc1Cl [Example 25] |
| 139 to 141 | COc1ccc(Cn2c(=O)ccc3cnc(N4CCC[C@@H]4CO)nc32)cc1Cl [Example 26] |
| 207 to 209 | COc1ccc(Cn2c(=O)ccc3cnc(N4CCOC(CO)C4)nc32)cc1Cl (stereo not shown) [Example 27] |
| 169.5 to 170 | COc1ccc(Cn2c(=O)ccc3cnc(N4CCNCC4)nc32)cc1Cl [Example 28] |
| 200 to 201 | COc1ccc(Cn2c(=O)ccc3cnc(N4CCc5cncnc5C4)nc32)cc1Cl [Example 29] |
| 234 to 242 | COc1ccc(Cn2c(=O)ccc3cnc(N)nc32)cc1Cl [Example 31] |
| 158 to 159 | COc1ccc(Cn2c(=O)ccc3cnc(N4CCn5ccnc5C4)nc32)cc1Cl [Example 32] |
| 258 to 264 | COc1ccc(Cn2c(=O)c(C(=O)O)cc3cnc(N4CCC[C@H]4CO)nc32)cc1Cl [Example 33] |
| 199 to 201 | COC(=O)c1cc2cnc(N3CCC[C@H]3CO)nc2n(Cc2ccccn2)c1=O [Example 42] |
